Read-outs that look alike come from different tables or passages of the source. Non-standard residues stand in square brackets, D forms with d. Residues, ends and D or L forms follow the SMILES beside them.
What was measured:
[1] = test system: EpiAirway™ human-derived tracheal/bronchial epithelial cells; test: Cytotoxicity (LDH assay); format: cell-based
Experimental: The amount of cell death was assayed by measuring the loss of lactate dehydrogenase (LDH) from the cells using a CytoTox 96 Cytoxicity Assay Kit (Promega Corp., Madison, Wis.). Fifty microliters of sample was loaded into a 96-well assay plates. Fresh, cell-free culture medium was used as a blank. 50 μl of substrate solution was added to each well and the plates incubated for 30 minutes at room temperature in the dark. Following incubation, 50 μl of stop solution was added to each well and the plates read on an optical density plate reader at 490 nm.
The amount of cell death will be assayed by measuring the loss of lactate dehydrogenase (LDH) from the cells using a CytoTox 96 Cytotoxicity Assay Kit (Promega Corp., Madison, Wis.). Fifty microliters of sample will be loaded into a 96-well assay plates. Fresh, cell-free culture medium will be used as a blank. Fifty microliters of substrate solution will be added to each well and the plates incubated for 30 minutes at room temperature in the dark. Following incubation, 50 μl of stop solution will be added to each well and the plates read on an optical density plate reader at 490 nm. The measurement of LDH release into the basolateral media indicates relative cytotoxicity of the samples. One hundred percent lysis of control inserts with 0.3% Octylphenolpoly(ethyleneglycolether)×(TritonX-100) allows LDH values to be expressed as percentage of total lysis.
In some embodiments, The amount of cell death was assayed by measuring the release of lactate dehydrogenase (LDH) from the cells into the apical medium using a CytoTox 96 Cytotoxicity Assay Kit (Promega Corp., Madison, Wis.). One percent Octylphenolpoly (ethyleneglycolether)×(Triton X-100™) diluted in phosphate buffered saline (PBS) causes 100% lysis in cultured cells and served herein as a positive control for the LDH assay. Following the one hour incubation period with a test formulation (refer to Table 24 of Example 25 for details of test formulations), the total liquid volume of each insert was brought to a final volume of 200 μl with culture medium. The apical medium was then mixed by pipetting four times with a multichannel pipette set to a 100 μl volume. After mixing, a 100 μl sample from the apical side of each insert was transferred to a new 96-well plate. The apical media samples were sealed with a plate sealer and stored at room temperature for same day analysis or stored overnight at 4° C. for analysis the next day. To measure LDH levels, 5 μl of the 100 μl apical media sample was diluted in 45 μl DPBS in a new 96-well plate. Fresh, cell-free culture medium will be used as a blank. Fifty microliters of substrate solution was added to each well and incubated for 30 minutes at room temperature away from direct light. Following the 30 minute incubation, 50 μl of stop solution was added to each well. Optical density (OD) was measured at 490 nm with a uQuant absorbance plate reader from Biotek Instruments. The measurement of LDH release into the apical media indicates relative cytotoxicity of the samples. Percent cytotoxicity for each test formulation was calculated by subtracting the measured absorbance of the PBS control (basal level of LDH release) from the measured absorbance of the individual test formulation and then dividing that value by the measured absorbance for the 1% Triton X-100™ positive control, multiplied by 100.
An LDH assay was used to assess the cytotoxicity of the treatments. The LDH level was determined by CytoTox96 Non-Radioactive Cytotoxic Assay (Promega, Madison, Wis.) following the manufacturer's protocol. For basal-lateral LDH levels, triplicates of 50 ul of the basal medium were used to determine the LDH level. For apical LDH level, 150 ul of the diluted apical sample was removed by adding 150 ul of Epi-CM to the apical chamber, the medium was mixed by pipeting up and down, and 150 ul medium was removed and diluted 2× (for a final 8-fold dilution) for assay in triplicates of 50 ul.

[2] = test system: EpiAirway™ human-derived tracheal/bronchial epithelial cells; test: Transepithelial electrical resistance (TER) across EpiAirway epithelial cell layer; format: cell-based; conditions: for TER(x)/TER(159) +/− SEM: ratio to PN159; for Relative TER Decrease: relative to PN159 = 1.0; for TER reduction (highest within the concentration range tested): EpiAirway epithelial cells
[3] = 15 minute treatment at the peptide's optimal concentration
[4] = 60 minute treatment at the peptide's optimal concentration

| Compound | TER(x)/TER(159) +/− SEM [2] | Relative TER Decrease [2] | other results |
| --- | --- | --- | --- |
| CC[C@H](C)[C@H](NC(=O)[C@H](CCCCN)NC(=O)[C@@H](NC(=O)[C@H](CCC(N)=O)NC(=O)[C@@H](N)CCCNC(=N)N)[C@@H](C)CC)C(=O)N[C@@H](Cc1c[nH]c2ccccc12)C(=O)N[C@@H](Cc1ccccc1)C(=O)N[C@@H](CCC(N)=O)C(=O)N[C@@H](CC(N)=O)C(=O)N[C@@H](CCCNC(=N)N)C(=O)N[C@@H](CCCNC(=N)N)C(=O)N[C@@H](CCSC)C(=O)N[C@@H](CCCCN)C(=O)N[C@@H](Cc1c[nH]c2ccccc12)C(=O)N[C@@H](CCCCN)C(=O)N[C@@H](CCCCN)C(N)=O [PN58] | – | – | LDH15 [1, 3]: 0.0007; LDH60 [1, 4]: 0.02; TER reduction ([2]; 250 μM peptide): −6%; TER reduction ([2]; 500 μM peptide): 64%; TER reduction ([2]; 1000 μM peptide): 88% |
| CC(C)C[C@@H](NC(=O)[C@H](N)CCCCN)C(=O)N[C@H](C)C(=O)N[C@H](CC(C)C)C(=O)N[C@H](CCCCN)C(=O)N[C@H](CC(C)C)C(=O)N[C@H](C)C(=O)N[C@H](CC(C)C)C(=O)N[C@H](CCCCN)C(=O)N[C@H](C)C(=O)N[C@H](CC(C)C)C(=O)N[C@H](CCCCN)C(=O)N[C@H](C)C(=O)N[C@H](C)C(=O)N[C@H](CC(C)C)C(=O)N[C@H](CCCCN)C(=O)N[C@H](CC(C)C)C(=O)N[C@H](C)C(N)=O [PN393, NH2-klalklalkalkaalkla-amide] | 1.06 +/− 0.00 | – | – |
| CC(C)C[C@H](NC(=O)[C@H](CC(C)C)NC(=O)[C@@H](CCCCN)NC(=O)[C@H](CC(C)C)NC(=O)[C@H](CC(C)C)NC(=O)[C@H](CCCCN)NC(=O)[C@@H](CCCCN)NC(=O)[C@@H](CC(C)C)NC(=O)[C@H](CC(C)C)NC(=O)[C@@H](CCCCN)NC(=O)[C@H](CCCCN)NC(=O)[C@H](CC(C)C)NC(=O)[C@@H](CC(C)C)NC(=O)[C@H](CCCCN)NC(=O)[C@@H](N)CC(C)C)C(N)=O [PN407, NH2-LKlLKkLlkKLLkLL-amide] (H-LK[dL]LK[dK]L[dL][dK]KLL[dK]LL-NH2) | 1.08 +/− 0.01 | 1.1 | – |
| CC(C)C[C@@H](NC(=O)[C@@H](C)N)C(=O)N[C@H](CCCCN)C(=O)N[C@H](CC(C)C)C(=O)N[C@H](C)C(=O)N[C@H](C)C(=O)N[C@H](CCCCN)C(=O)N[C@H](CC(C)C)C(=O)N[C@H](C)C(=O)N[C@H](CCCCN)C(=O)N[C@H](CC(C)C)C(=O)N[C@H](C)C(=O)N[C@H](CC(C)C)C(=O)N[C@H](CCCCN)C(=O)N[C@H](CC(C)C)C(=O)N[C@H](C)C(=O)N[C@H](CC(C)C)C(=O)N[C@H](CCCCN)C(N)=O [PN408, NH2-alklaaklaklalklalk-amide] | 1.05 +/− 0.01 | – | – |
| CC(C)C[C@H](NC(=O)[C@H](C)NC(=O)[C@H](CCCCN)NC(=O)[C@H](CC(C)C)NC(=O)[C@H](CC(N)=O)NC(=O)[C@H](CC(C)C)NC(=O)[C@H](CCCCN)NC(=O)[C@H](CC(C)C)NC(=O)[C@@H](CCCCN)NC(=O)[C@H](CC(C)C)NC(=O)[C@H](CCCCN)NC(=O)[C@H](CC(C)C)NC(=O)[C@H](C)NC(=O)[C@H](C)NC(=O)[C@H](CCCCN)NC(=O)[C@H](CC(C)C)NC(=O)[C@H](C)NC(=O)[C@H](CCCCN)NC(=O)[C@H](CC(C)C)NC(=O)[C@H](C)NC(=O)[C@H](CCCCN)NC(=O)[C@H](CC(C)C)NC(=O)[C@H](C)NC(=O)[C@H](CC(C)C)NC(=O)[C@@H](N)CCCCN)C(N)=O [PN422] (H-KLALKALKALKAALKL[dK]LKLNLKAL-NH2) | 0.47 +/− 0.07 | – | – |
| H-AAVALLPAVLLALLAPRKKRRQRRRPPQ-NH2 [PN27] | – | – | LDH15 [1, 3]: 0.0056; LDH60 [1, 4]: 0.035; TER reduction ([2]; 125 μM peptide): 81%; TER reduction ([2]; 250 μM peptide): 91%; TER reduction ([2]; 500 μM peptide): 94% |
| H-KALAALLKKAAKLLAALK-NH2 [PN442] | 0.93 +/− 0.03 | – | – |
| H-KALAALLKKLAKLLAALK-NH2 [PN444] | 0.82 +/− 0.05 | – | – |
| H-KALKLKAALALLAKLKLA-NH2 [PN424] | 0.59 +/− 0.07 | – | – |
| H-KETWWETWWTEWSQPGRKKRRQRRRRPPQ-NH2 [PN183] | – | – | TER reduction ([2]; 100 μM peptide): 25%; TER reduction ([2]; 500 μM peptide): 41%; TER reduction ([2]; 1000 μM peptide): 55%; TER reduction (highest within the concentration range tested) [2]: 55% |
| H-KLAAALLKKAKKLAAALL-NH2 [PN441] | 0.54 +/− 0.04 | – | – |
| H-KLALKLALKALKAALK-NH2 [PN418] | 1.05 +/− 0.05 | – | – |
| H-KLALKLALKALKAALKLALK-NH2 [PN419] | 1.23 +/− 0.01 | – | – |
| H-KLALKLALKALKAALKLALKLA-NH2 [PN420] | 0.77 +/− 0.05 | – | – |
| H-KLALKLALKALKAALKLALKLALK-NH2 [PN421] | 0.74 +/− 0.11 | – | – |
| H-KLALKLALKNLKAALKLA-NH2 [PN448] | – | 0.4 | – |
| H-KLAWKLALKALKAALKLA-NH2 [PN0425] | – | 1.0 | – |
| H-KLAWKLALKALKAAWKLA-NH2 [PN0427] | – | 1.0 | – |
| H-KLAWKLAWKALKAAWKLA-NH2 [PN0428] | – | 0.7 | – |
| H-KLWSAWPSLWSSLWKP-NH2 [PN228] | – | – | LDH15 [1]: 0.0063; LDH60 [1]: 0.046; TER reduction ([2]; 100 μM peptide): 9%; TER reduction ([2]; 500 μM peptide): 82% |
| H-LKLLKKLLKKLLKLL-NH2 [PN406] | – | 0.9 | – |
| H-LKTLATALTKLAKTLTTL-NH2 [PN443] | – | 0.3 | – |
| H-RKKRRQRRRPPQCAAVALLPAVLLALLAP-NH2 [PN28] | – | – | TER reduction (highest within the concentration range tested) [2]: functionally equivalent to PN27 |
| H-RLAWRLALRALRAALRLA-NH2 [PN395] | – | 0.8 | – |
| Octylphenolpoly (ethyleneglycolether)×(Triton X-100™) [Triton X-100 ™, reference compound] | – | – | % Triton-X LDH Release ([1]; 1% Triton X-100, positive control): 100% |
